The melting point is the temperature of the solid-liquid transition.

Counter-ions that a name gives are not always drawn. Bounds are passed on as bounds.

In the case of `NCCNc1nc(C(=O)c2cccs2)c2sccc2n1` (as salt: hydrochloride) [Example 55, 2-(2-Aminoethylamino)thieno[3,2-d]pyrimidin-4-yl 2-thienylmethanone dihydrochloride], the melting point is > 190 °C (dec.).

For the compound `CCc1nc(C(O)c2cccs2)c2sccc2n1` (stereo not drawn) [Example 36, 2-Ethyl-α-(2-thienyl)thieno[3,2-d]pyrimidine-4-methanol], the melting point was in the range of 147 to 149 °C.

Consider `Cc1csc2c(C(=O)c3cccs3)nc(N(C)C)nc12` [Example 38, 2-Dimethylamino-7-methylthieno[3,2-d]pyrimidin-4-yl 2-thienylmethanone], for which the melting point was 156 to 158 °C. As for `O=C(c1cccs1)c1nc(NCc2ccco2)nc2ccsc12` [Example 96, 2-(2-Furylmethylamino)thieno[3,2-d]primidin-4-yl 2-thienylmethanone], the melting point was > 140 °C (dec.). To `O=C(c1cccs1)c1nc(N2CCC[C@@H]2C(=O)O)nc2ccsc12` [Example 121, (2R)-N-(4-(2-Thienylcarbonyl)thieno[3,2-d]pyrimidin-2-yl)proline] belongs > 131 °C (dec.); to `O=C(c1ccc([N+](=O)[O-])cc1)c1nc(C(F)(F)F)nc2ccsc12` [Example 31, 4-Nitrophenyl 2-trifluoromethylthieno[3,2-d]pyrimidin-4-ylmethanone], 185 to 186 °C; to `CC(C)(CO)Nc1nc(C(=O)c2cccs2)c2sccc2n1` [Example 119, 2-(1-Hydroxy-2-methyl-2-propylamino)thieno[3,2-d]pyrimidin-4-yl 2-thienylmethanone], 126.4 to 127.1 °C.

`CN(C)CCNC(=O)c1nc(C(=O)c2cccs2)c2sccc2n1` [Example 134, N-(2-Dimethylaminoethyl)-4-(2-thienylcarbonyl)thieno[3,2-d]pyrimidin-2-carboxamide] displayed a melting point of 143.6 to 144.7 °C.

With `O=C(c1cc2ccccc2o1)c1nc(C(F)(F)F)nc2ccsc12` [Example 15, 2-Benzofuranyl 2-trifluoromethylthieno[3,2-d]pyrimidin-4-ylmethanone], the melting point lay within 221 to 223 °C.

`O=C(c1ccc(Cl)cc1)c1nc(C(F)(F)F)nc2ccsc12` [Example 30, 4-Chlorophenyl 2-trifluoromethylthieno[3,2-d]pyrimidin-4-ylmethanone] came in with a melting point of 127 to 128 °C. `COc1ccc(C(=O)c2nc(C(F)(F)F)nc3ccsc23)cc1` [Example 27, 4-Methoxyphenyl 2-trifluoromethylthieno[3,2-d]pyrimidin-4-ylmethanone] yielded a melting point of 155 to 157 °C. For the compound `O=C(c1cccs1)c1nc(N2CCCC2)nc2ccsc12` [Example 109, 2-(Pyrrolidin-1-yl)thieno[3,2-d]pyrimidin-4-yl 2-thienylmethanone], the melting point lay in the range of 229.1 to 229.4 °C.

The compound `CS(=O)(=O)NNc1nc(C(=O)c2cccs2)c2sccc2n1` [Example 128, Methanesulphonic acid 2-(4-(2-thienylcarbonyl)thieno[3,2-d]pyrimidin-2-yl)hydrazide] gave a melting point of 242.1 to 242.7 °C. With `Cc1cccc(C(=O)c2nc(C(F)(F)F)nc3ccsc23)c1` [Example 32, 3-Methylphenyl 2-trifluoromethylthieno[3,2-d]pyrimidin-4-ylmethanone] the figure was 131 to 133 °C; with `CC(=O)NCCNc1nc(C(=O)c2cccs2)c2sccc2n1` [Example 90, N-(2-(4-(2-Thienylcarbonyl)thieno[3,2-d]pyrimidin-2-yl)aminoethyl)acetamide], 212.2 to 212.5 °C; with `CN(CCN)c1nc(C(=O)c2cccs2)c2sccc2n1` [Example 120, 2-(N-(2-Aminoethyl)-N-methylamino)thieno[3,2-d]pyrimidin-4-yl 2-thienylmethanone], 151.6 to 152.4 °C.

For `CCOC(=O)c1nc(C(=O)c2cccs2)c2sccc2n1` [Example 122, Ethyl 4-(2-thienylcarbonyl)thieno[3,2-d]pyrimidin-2-carboxylate], the melting point lay in the range of 185.7 to 186.2 °C.
